According to patent US5407940A, “New ellipticine compounds” (priority 1992, dated 1995):
Like-named read-outs stand apart in the source and are kept apart here.

Legend:
[1] = Anti-tumour activity against M5076 sarcoma; assay type: in vivo, female B6D2F1 mice; conditions: mouse, in vivo, ip; read-out: maximum tolerated dose
Protocol: (§1) M5076 sarcoma is supplied by NCI (Frederick, USA). The tumour cells (10^7 cells/animal) were inoculated on d0 into the peritoneal cavity of female B6D2F1 mice. The compounds were administered by the i.p. route on d1, d5, d9 and d13 at the doses indicated. The surviving animals on d90 were recorded and the T/C survival (%) was calculated.

M5076 sarcoma = assay: Anti-tumour activity against M5076 sarcoma; assay type: in vivo, female B6D2F1 mice; conditions: for Survivors on d90 / median T/C (survival): i.p., d1, d5, d9, d13
Protocol: as §1

L1210 = assay: Cytotoxicity, line L1210 (Microculture Tetrazolium Assay); assay type: cell-based, murine; conditions: for IC50: Mus musculus, L1210, 48 h, read-out: Cytotoxicity IC50, line L1210
Description: (§2) The cells are distributed on microplates and exposed to the cytotoxic compounds.

KB-A1 [2] = assay: cells; conditions: Homo sapiens, KB-A1, 96 h, read-out: Cytotoxicity IC50, resistant KB-A1
KB-3-1 = assay: Cytotoxicity, sensitive line KB-3-1; assay type: cell-based; conditions: Homo sapiens, KB 3-1, 96 h, read-out: Cytotoxicity IC50, sensitive KB-3-1
Description: as §2

KB-A1 [3] = tested on: KB-A1
leukaemia P388 [4] = assay: Anti-tumour activity against leukaemia P388 in vivo; conditions: for Survivors on d60/total no. of mice / T/C: intraperitoneal, day 1; for cures, treated mice (comparators): reference compounds, dose not given
[5] = tested on: Lewis pulmonary carcinoma; assay: Anti-tumour activity against Lewis pulmonary carcinoma; assay type: in vivo, female B6D2F1 mice; conditions: for Survivors on d90 / median T/C (survival) / median T/C (volume) d20: i.v., d3, d6, d9; for activity against this very resistant model (in words): adriamycin at the maximum tolerated dose
leukaemia P388 [6] = conditions: mouse, in vivo
P388 = assay: Cytotoxicity, sensitive line P388 (Microculture Tetrazolium Assay); assay type: cell-based, murine; conditions: Mus musculus, P388, 48 h, read-out: Cytotoxicity IC50, sensitive P388
Description: as §2

P388/VCR-20 [7] = assay: cells; conditions: Mus musculus, P388, 48 h, read-out: Cytotoxicity IC50, resistant P388/VCR-20
S1 = assay: Cytotoxicity, sensitive line S1; assay type: cell-based; conditions: Homo sapiens, 96 h, read-out: Cytotoxicity IC50, sensitive S1
Description: as §2

colon 38 = assay: Anti-tumour activity against colon 38; assay type: in vivo, female B6D2F1 mice; conditions: i.v., d2 and d9, d25
Protocol: Colon 38 (supplied by NCI, Frederick, USA) was inserted in the form of fragments by the subcutaneous route into female B6D2F1 mice. The compounds were administered by the i.v. route on d2 and d9 and the anti-tumour activity was determined on […] by measuring the tumour volume (T/C volume, %).

S1/tMDR [8] = tested on: S1/tMDR
S1/tMDR [9] = assay: cells; conditions: Homo sapiens, 96 h, read-out: Cytotoxicity IC50, resistant S1/tMDR
P388/VCR-20 [10] = tested on: P388/VCR-20
[11] = maximum tolerated dose (2 mg/kg)

With `Cc1c2cc[n+](C)cc2c(C)c2c1[nH]c1ccc(O)cc12` [elliptinium acetate, reference compound] the MTD [1] was 2 mg/kg, the “Survivors on d90” value (M5076 sarcoma; 1 mg/kg) was 1/10 and the “median T/C (survival)” value (M5076 sarcoma; 1 mg/kg) was 153%. The “Survivors on d90” value (M5076 sarcoma; 2 mg/kg) was 0/10, the “median T/C (survival)” value (M5076 sarcoma; 2 mg/kg) was 180% and the “activity against that tumour (in words)” value (M5076 sarcoma; [11]) was “not very active”. For the same molecule, the “survivors” value (M5076 sarcoma; [11]) was “no animal has survived”, the IC50 (L1210) was 139 nM and the IC50 (KB-A1 [2]) was 4320 nM. For the same molecule, the IC50 (KB-3-1) was 226 nM, the resistance factor (KB-A1 [3]) was 19 and the “Survivors on d60/total no. of mice” value (leukaemia P388 [4]; 5 mg/kg) was 0/10. The T/C (leukaemia P388 [4]; 5 mg/kg) was 171%, the gravimetric variation (leukaemia P388 [4]; at the optimum dose used, equitoxic doses) was -4 g and the “toxic at dose and above” value (leukaemia P388 [4]; mouse, in vivo) was no less than 5 mg/kg. For the same molecule, the “cures, treated mice (comparators)” value (leukaemia P388 [4]) was “none”.

With `COc1cccc2c1C(=O)c1c(O)c3c(c(O)c1C2=O)C[C@@](O)(C(=O)CO)C[C@@H]3O[C@H]1C[C@H](N)[C@H](O)[C@H](C)O1` [ADR, adriamycin, reference compound] the “Survivors on d90” value (M5076 sarcoma; 5 mg/kg) was 4/10, the “median T/C (survival)” value (M5076 sarcoma; 5 mg/kg) was 320% and the IC50 (L1210) was 26.4 nM. For the same molecule, the “Survivors on d90” value ([5]; 5 mg/kg) was 2/10, the “median T/C (survival)” value ([5]; 5 mg/kg) was 125% and the “median T/C (volume) d20” value ([5]; 5 mg/kg) was 44%. For the same molecule, the “Survivors on d90” value ([5]; 10 mg/kg) was 3/10, the “median T/C (survival)” value ([5]; 10 mg/kg) was 128% and the “median T/C (volume) d20” value ([5]; 10 mg/kg) was 1%. The “Survivors on d90” value ([5]; 2,5 mg/kg) was 0/10, the “median T/C (survival)” value ([5]; 2,5 mg/kg) was 108% and the “median T/C (volume) d20” value ([5]; 2,5 mg/kg) was 63%. The “activity against this very resistant model (in words)” value [5] was “far less active”, the gravimetric variation (leukaemia P388 [6]) was -0.7 g and the IC50 (P388) was 20 nM. For the same molecule, the IC50 (KB-A1 [2]) was 6870 nM, the IC50 (KB-3-1) was 5 nM and the IC50 (P388/VCR-20 [7]) was 340 nM. For the same molecule, the IC50 (S1) was 36 nM, the “Survivors on d60/total no. of mice” value (leukaemia P388 [4]; 10 mg/kg) was 2/10 and the T/C (leukaemia P388 [4]; 10 mg/kg) was 290%. The “cures, treated mice (comparators)” value (leukaemia P388 [4]) was 2 and the “median T/C (tumour volume)” value (colon 38; 15 mg/kg) was 0%.

For `Cc1c2ccnc(C(=O)NCCN(C)C)c2cc2c3cc(O)ccc3n(C)c12` [Example 1, 1-(N,N-Dimethylaminoethylaminocarbonyl)-5,6-dimethyl-9-hydroxy-6H-pyrido[4,3-b]carbazole], the “Survivors on d90” value (M5076 sarcoma; 5 mg/kg) was 0/10, the “median T/C (survival)” value (M5076 sarcoma; 5 mg/kg) was 168% and the “Survivors on d90” value (M5076 sarcoma; 10 mg/kg) was 4/10. The “median T/C (survival)” value (M5076 sarcoma; 10 mg/kg) was 301%, the “activity against that tumour (in words)” value (M5076 sarcoma; 20 mg/kg) was “very active” and the “Survivors on d90” value (M5076 sarcoma; 20 mg/kg) was 6/10. The “median T/C (survival)” value (M5076 sarcoma; 20 mg/kg) was greater than 352%, the “times more cytotoxic than adriamycin” value (L1210; L1210) was “approximately 9 times” and the “times more cytotoxic than elliptinium acetate” value (L1210; L1210) was roughly 46 times. For the same molecule, the IC50 (L1210; 2 days incubation) was 2.6 nM, the “Survivors on d90” value ([5]; 20 mg/kg) was 6/10 and the “median T/C (survival)” value ([5]; 20 mg/kg) was greater than 300%. For the same molecule, the “median T/C (volume) d20” value ([5]; 20 mg/kg) was 1%, the “curative for % of the animals” value ([5]; 40 mg/kg) was 100% and the “Survivors on d90” value ([5]; 40 mg/kg) was 10/10. For the same molecule, the “median T/C (survival)” value ([5]; 40 mg/kg) was greater than 300%, the “median T/C (volume) d20” value ([5]; 40 mg/kg) was 0% and the “Survivors on d90” value ([5]; 60 mg/kg) was 6/10. The “median T/C (survival)” value ([5]; 60 mg/kg) was greater than 300%, the “median T/C (volume) d20” value ([5]; 60 mg/kg) was 0% and the “activity against this very resistant model (in words)” value [5] was “very active”. For the same molecule, the IC50 (P388; 2 days incubation) was 5 nM, the IC50 (KB-A1 [2]) was 120 nM and the IC50 (KB-3-1; 4 days incubation) was 12 nM. For the same molecule, the resistance factor (S1/tMDR [8]; S1/tMDR vs S1) was 0,5, the “sensitivity of resistant line S1/tMDR relative to corresponding sensitive line” value (S1/tMDR [8]; vs S1) was “more sensitive” and the IC50 (P388/VCR-20 [7]) was 4 nM. For the same molecule, the resistance factor (KB-A1 [3]; KB-A1 vs KB-3-1) was 10, the IC50 (S1; 4 days incubation) was 49 nM and the IC50 (S1/tMDR [9]) was 25 nM. The “Survivors on d60/total no. of mice” value (leukaemia P388 [4]; 5 mg/kg) was 1/10, the T/C (leukaemia P388 [4]; 5 mg/kg) was 163% and the “Survivors on d60/total no. of mice” value (leukaemia P388 [4]; 10 mg/kg) was 1/10. For the same molecule, the T/C (leukaemia P388 [4]; 10 mg/kg) was 183%, the “Survivors on d60/total no. of mice” value (leukaemia P388 [4]; 20 mg/kg) was 2/10 and the T/C (leukaemia P388 [4]; 20 mg/kg) was 220%. The “Survivors on d60/total no. of mice” value (leukaemia P388 [4]; 30 mg/kg) was 3/10, the T/C (leukaemia P388 [4]; 30 mg/kg) was 200% and the “Survivors on d60/total no. of mice” value (leukaemia P388 [4]; 60 mg/kg) was 3/10. The T/C (leukaemia P388 [4]; 60 mg/kg) was 257%, the “long-term survivors over all doses employed” value (leukaemia P388 [4]; all doses employed) was “all the doses employed giving long-term survivors” and the “cures, treated mice” value (leukaemia P388 [4]; single administration of 30 mg/kg) was 7 out of 10. The “median T/C (tumour volume)” value (colon 38; 20 mg/kg) was 41%, the “median T/C (tumour volume)” value (colon 38; 40 mg/kg) was 16% and the “median T/C (tumour volume)” value (colon 38; 60 mg/kg) was 0%. The resistance factor (P388/VCR-20 [10]; P388/VCR-20 vs P388) was 0,8 and the “sensitivity of resistant line P388/VCR-20 relative to corresponding sensitive line” value (P388/VCR-20 [10]; vs P388) was “more sensitive”.
